Values quoted from earlier work, collected in patent US20120322745A1, “OPTIMIZED METHOD FOR OBTAINING ACE ACTIVITY INHIBITORY PEPTIDES FROM WHEY, ACE INHIBITORY PEPTIDES AND FOOD COMPRISING THEM” (QUEIZUAR ,S.L., priority 2011, published 2012).

Target: angiotensin converting enzyme (ACE)
Settings: ACE inhibitory peptides obtained by enzymatic hydrolysis of whey proteins

Row | Substance | IC50 [µM]
1 | ALKAWSVAR [BSA f(208-216)] | 3
2 | ALPMHIR [β-Lg (f 142-148)] | 42.6
3 | LDAQSAPLR [β-Lg f(32-40)] | 635
4 | LKPTPEGN [β-Lg (f 46-53)] | > 2700
5 | VGINYWLAHK [α-La f(99-108)] | 327
6 | WLAHK [α-La f(104-108)] | 77
7 | β-Lg (f 102-105): ACE inhibitory peptide, sequence YLLF, from hydrolysis with pepsin, trypsin, chemotrypsin (UniProt P02754 118-121, looked up, fragment) | 172
8 | β-Lg (f 122-125): ACE inhibitory peptide, sequence LVRT, from whey protein hydrolysis with thermolysin (UniProt P02754 138-141, looked up, fragment) | 2470
9 | β-Lg f(15-19): ACE inhibitory peptide, sequence VAGT, from hydrolysis with pepsin, trypsin, chemotrypsin | 1050
10 | β-Lg f(22-25): ACE inhibitory peptide, sequence LAMA, from whey protein hydrolysis with trypsin (UniProt P02754 38-41, looked up, fragment) | 556
11 | β-Lg f(58-61): ACE inhibitory peptide, sequence LKQW, from whey protein hydrolysis with thermolysin | 34.7

Other lines, results leading:

Row | IC50 [µM] | Substance
12 | 521 | ALPMH (UniProt P02754 158-162, looked up, fragment) [β-Lg f(142-146)]
13 | 788 | CMENSA [β-Lg f(106-111)]
14 | 946 | VLDTDYK [β-Lg f(94-100)]
15 | 141 | β-Lg f(78-80): ACE inhibitory peptide, sequence IPA, from whey protein hydrolysis with proteinase k (UniProt P02754 94-96, looked up, fragment)
16 | 1030 | β-Lg f(81-83): ACE inhibitory peptide, sequence VFK, from whey protein hydrolysis with trypsin (UniProt P02754 97-99, looked up, fragment)
17 | 79.8 | β-Lg f(103-105): ACE inhibitory peptide, sequence LLF, from whey protein hydrolysis with thermolysin (UniProt P02754 119-121, looked up, fragment)
